Data on 4 molecules can be found in ChEMBL document CHEMBL1144508, “Inhibitory activity of stilbenes on Alzheimer's beta-amyloid fibrils in vitro” (Bioorg Med Chem, 2007).

Active and inactive are the calls of the source. No cut-off for these calls is given here.

Assay [1] is described as follows: (§1) Antiamyloidogenic activity assessed as inhibition of beta amyloid (25-35) fibril formation after 6 hrs. The arrangement: species or system Homo sapiens.
The species entered for another assay is Homo sapiens. Described as §1.

`Oc1ccc(/C=C/c2cc(O)cc(O)c2)cc1` [RESVERATROL]: in assay [1], the EC50 (as a rule, the midpoint of the concentration-response curve) was determined as 5.6 µM.

`O=c1oc2c(O)c(O)cc3c(=O)oc4c(O)c(O)cc1c4c23`: the result in the assay filed under Homo sapiens was inactive.

With `OC[C@H]1O[C@@H](Oc2cc(O)cc(/C=C/c3ccc(O)cc3)c2)[C@H](O)[C@@H](O)[C@@H]1O` [PICEID], the EC50 in assay [1] was 4.7 µM. The same measure, in the same setting: for `COc1cc(/C=C/C(=O)CC(=O)/C=C/c2ccc(O)c(OC)c2)ccc1O` [CURCUMIN] the value was 10 µM.
